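At the GI50, growth is halved. TGI marks complete inhibition of growth.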
What was measured:
Experiment in all cases: inhibition of tumour cell growth, NCI panel, 384-well format
NCI-H226 lung = tested on: NCI-H226 lung
NCI-H23 lung = tested on: NCI-H23 lung
NCI-H322M lung = tested on: NCI-H322M lung
NCI-H460 NSCLC = tested on: NCI-H460 NSCLC
NCI-H522 lung = tested on: NCI-H522 lung
NCI/ADR-RES ovarian = tested on: NCI/ADR-RES ovarian
OVCAR-3 ovarian = tested on: OVCAR-3 ovarian
OVCAR-4 ovarian = tested on: OVCAR-4 ovarian
OVCAR-5 ovarian = tested on: OVCAR-5 ovarian
PC-3 prostate = tested on: PC-3 prostate
RPMI-8226 leukemia = tested on: RPMI-8226 leukemia
RXF 393 renal = tested on: RXF 393 renal
SF-268 CNS = tested on: SF-268 CNS
SF-295 CNS = tested on: SF-295 CNS
SF-539 CNS = tested on: SF-539 CNS
SK-MEL-2 melanoma = tested on: SK-MEL-2 melanoma
SK-MEL-28 melanoma = tested on: SK-MEL-28 melanoma
SK-MEL-5 melanoma = tested on: SK-MEL-5 melanoma
SK-OV-3 ovarian = tested on: SK-OV-3 ovarian
SN12C renal = tested on: SN12C renal
SNB-19 CNS = tested on: SNB-19 CNS
SNB-75 CNS = tested on: SNB-75 CNS
SR leukemia = tested on: SR leukemia
SW-620 colon = tested on: SW-620 colon
T-47D breast = tested on: T-47D breast
U251 glioblastoma = tested on: U251 glioblastoma
UACC-257 melanoma = tested on: UACC-257 melanoma
UACC-62 melanoma = tested on: UACC-62 melanoma
UO-31 renal = tested on: UO-31 renal

Compound: COc1c(C)cnc(Cn2cnc3c(Cl)nc(N)nc32)c1C
- GI50 (NCI-H226 lung): 245 nM
- TGI (NCI-H226 lung): > 100000 nM
- GI50 (NCI-H23 lung): 149 nM
- TGI (NCI-H23 lung): 500 nM
- GI50 (NCI-H322M lung): 167 nM
- TGI (NCI-H322M lung): 80100 nM
- GI50 (NCI-H460 NSCLC): 34 nM
- TGI (NCI-H460 NSCLC): 123 nM
- GI50 (NCI-H522 lung): 61.7 nM
- TGI (NCI-H522 lung): 313 nM
- GI50 (NCI/ADR-RES ovarian): 177 nM
- TGI (NCI/ADR-RES ovarian): 498 nM
- GI50 (OVCAR-3 ovarian): 165 nM
- TGI (OVCAR-3 ovarian): 13800 nM
- GI50 (OVCAR-4 ovarian): 286 nM
- TGI (OVCAR-4 ovarian): 27400 nM
- GI50 (OVCAR-5 ovarian): 264 nM
- TGI (OVCAR-5 ovarian): > 100000 nM
- GI50 (PC-3 prostate): 137 nM
- TGI (PC-3 prostate): 664 nM
- GI50 (RPMI-8226 leukemia): 71.5 nM
- TGI (RPMI-8226 leukemia): 296 nM
- GI50 (RXF 393 renal): 692 nM
- TGI (RXF 393 renal): 7520 nM
- GI50 (SF-268 CNS): 133 nM
- TGI (SF-268 CNS): 23800 nM
- GI50 (SF-295 CNS): 134 nM
- TGI (SF-295 CNS): 654 nM
- GI50 (SF-539 CNS): 97.2 nM
- TGI (SF-539 CNS): 389 nM
- GI50 (SK-MEL-2 melanoma): 482 nM
- TGI (SK-MEL-2 melanoma): 783 nM
- GI50 (SK-MEL-28 melanoma): 388 nM
- TGI (SK-MEL-28 melanoma): 16200 nM
- GI50 (SK-MEL-5 melanoma): 59.6 nM
- TGI (SK-MEL-5 melanoma): 16000 nM
- GI50 (SK-OV-3 ovarian): 264 nM
- TGI (SK-OV-3 ovarian): 5000 nM
- GI50 (SN12C renal): 143 nM
- TGI (SN12C renal): 488 nM
- GI50 (SNB-19 CNS): 262 nM
- TGI (SNB-19 CNS): 5620 nM
- GI50 (SNB-75 CNS): 357 nM
- TGI (SNB-75 CNS): 2080 nM
- GI50 (SR leukemia): 16.3 nM
- TGI (SR leukemia): 31.1 nM
- GI50 (SW-620 colon): 78.7 nM
- TGI (SW-620 colon): 5030 nM
- GI50 (T-47D breast): 339 nM
- TGI (T-47D breast): 14800 nM
- GI50 (U251 glioblastoma): 47.3 nM
- TGI (U251 glioblastoma): 1300 nM
- GI50 (UACC-257 melanoma): 651 nM
- TGI (UACC-257 melanoma): 34600 nM
- GI50 (UACC-62 melanoma): 145 nM
- TGI (UACC-62 melanoma): 711 nM
- GI50 (UO-31 renal): 74.5 nM
- TGI (UO-31 renal): > 100000 nM
